Assay results: patent US6472369B1, “Anticancer compounds and methods” (The Regents of the University of Michigan, priority 1996, dated 2002)

Tests used:
[1] = test system: rat metastatic prostate carcinoma MatLyLu (MLL) cells; test: SU-ECM invasion assay, rat MatLyLu prostate carcinoma cells; type: cell-based; details: for inhibition of PHSRN-induced invasion of SU-ECM: serum free media, 100 ng per ml PHSRN, FIG. 7B
Experimental: (§1) Adult Strongylocentrotus purpuratus sea urchins were obtained from Pacific BioMarine, and their embryos were cultured to the early pluteus stage in artificial sea water at 15° C. SU-ECM were prepared from them by treatment with nonionic detergent and strerilized by dilution in the appropriate media.
Cells were harvested by rinsing in Hanks' balanced salt solution, followed by brief treatment with 0.25% trypsin, 0.02% EDTA, and pelleting and resuspension in the appropriate medium with or without 5% FCS at a density of about 50,000 cells per ml. When appropriate, purified bovine plasma fibronectin (Sigma), purified 120 kDa chymotryptic fragment (Gibco BRL), PHSRN (SEQ ID NO:1) or PHSCN (SEQ ID NO:86) peptides (synthesized at the Biomedical Research Core Facilities of the University of Michigan), or GRGDSP (SEQ ID NO:83) or GRGESP (SEQ ID NO:84) peptides (Gibco BRL) were added to the resuspended cells prior to placement of the cells on SU-ECM. In each well of a plate used for an invasion assay, SU-ECM were placed in 0.5 ml of the appropriate medium, and 0.5 ml of the resuspended cells dropped on their exterior surfaces. Invasion assays were incubated 1 to 16 hours prior to assay. If some circumstances, invasion assays were fixed in phosphate-buffered saline (PBS) with 2% formaldehyde for 5 minutes at room temperature, then rinsed into PBS.
(§2) Invasion assays were coded and scored blindly by microscopic examination under phase contrast at 200- and 400-fold magnification. Each cell contacting an SU-ECM was scored for its position relative to the exterior or interior surfaces. A cell was judged to have invaded if it was located on an interior surface below the focal plane passing through the upper surface of the SU-ECM, but above the focal plane passing through its lower surface. The minimum viability of the cells in each assay was always ascertained at the time of assay by determining the fraction of spread, adherent cells on the bottom of each well scored.
(§3) An invasion frequency is defined as the fraction of cells in contact with basement membranes which were located in their interiors at the time of assay. Thus, an invasion frequency of 1 denotes invasion by 100% of the cells in contact with basement membranes. Invasion frequencies were determined multiple times for each cell type assayed. For each type of cell assayed the mean and standard deviation of the invasion frequencies were calculated.
The result of adding a varying concentration of the PHSCN (SEQ ID NO:86) peptide to PHSRN-induced (SEQ ID NO:1) MLL cells in serum free media is shown in FIG. 7B, where 100 ng per ml of PHSRN (SEQ ID NO:1) was used to induce invasion.
The procedure described in Example 10, was employed using SU-ECM substrates in 10% FCS and PHS(hC)N (SEQ ID NO:85) instead of PHSCN (SEQ ID NO:86). The result of adding varying concentrations of the PHS(hC)N (SEQ ID NO:85) peptide to serum-induced MLL cells indicates this peptide also has an inhibitory affect on cell invasion (see FIG. 8).

MatLyLu (MLL) tumors = test: MLL prostate tumor growth and metastasis in rats, treatment begun after 24 hours (Example 13); type: in vivo, Copenhagen rats
Experimental: In the first part of this example, 20 Copenhagen rats were injected with 500,000 MatLyuLu (MLL) cells subcutaneously in the thigh. To more closely approximate a real clinical situation, PHSCN (SEQ ID NO:86) peptide treatment of 10 of these rats was initiated after 24 hours, instead of immediately. The 10 treated rats (MLL/PHSCN (SEQ ID NO:86)) received a total of 5 i.v. injections of 1 mg of the PHSCN (SEQ ID NO:86) peptide through the tail vein over two weeks. Tumor sizes were measured with calipers on day 14, and the tumors in the untreated rats were removed. Since the injected tumors in the MLL/PHSCN (SEQ ID NO:86) rats were still small, they were retained in the rats for another 7 to 9 days following the last PHSCN (SEQ ID NO:86) injection. At this time, their sizes were all greater than 2 cm, and they were also removed.
In the second part of this example, the MLL/PHSCN (SEQ ID NO:86) rats received 2 more i.v. doses of the PHSCN (SEQ ID NO:86) peptide prior to sacrifice. Ten days after the sizes of the injected primary tumors were determined, all the rats in the two groups (MLL only and MLL/PHSCN (SEQ ID NO:86)) were sacrificed, and the number of lung metastases was determined at 7.5-fold magnification.
The 20 rats described in parts one and two of this example were also examined for metastatic tissues in […]. All of these metastases were dissected and weighed. FIG. 10C plots the mean masses of intraperitoneal metastases (grams) for the two groups of 10 rats. […] This may be due to the anti-angiogenic effect of the PHSCN (SEQ ID NO:86) peptide, as described in part one of this example. In this manner, the PHSCN (SEQ ID NO:86) peptide maybe an effective anti-metastatic, growth-inhibiting chemotherapeutic agent for use in the treatment of cancer.

[2] = test system: normal human prostate epithelial cells; test: SU-ECM invasion assay, normal human prostate epithelial cells; type: cell-based; details: 10% FCS, 100 ng per ml PHSRN, FIG. 6B
Experimental: as §1, with “media. […]” for “media.”
as §2, with “A cell was judged to have invaded if it was located on an interior surface below the focal plane passing through the upper surface of the SU-ECM, but above the focal plane passing through its lower surface.” left out
as §3, with “Thus, an invasion frequency of 1 denotes invasion by 100% of the cells in contact with basement membranes.” left out, “calculated. […]” for “calculated.”

Substance: Pro-His-Ser-Cys-Asn (PHSCN)
- inhibition of PHSRN-induced invasion of SU-ECM ([1]; higher concentrations): almost complete inhibition
- inhibition of PHSRN-induced invasion of SU-ECM ([1]; low concentrations): substantial inhibitory affect
- inhibition of serum-induced invasion of SU-ECM ([1]; serum-induced, I microgram per ml peptide, FIG. 7A): complete inhibition of invasion
- tumor size (MatLyLu (MLL) tumors; 7 to 9 days following the last PHSCN injection): greater than 2 cm
- mean numbers of lung metastases (MatLyLu (MLL) tumors; compared to untreated rats, 7.5-fold magnification, ten days after tumor sizing, FIG. 10B): significant reduction
- mean masses of intraperitoneal (lymphatic) metastases (MatLyLu (MLL) tumors; compared to untreated rats, FIG. 10C): significant reduction
- growth of rat prostate cancer tumors (tumor size, calipers) (MatLyLu (MLL) tumors; day 14, 5 i.v. injections of 1 mg over two weeks, started after 24 hours, FIG. 10A): substantially slows the growth
- inhibition of PHSRN-induced invasion of SU-ECM ([2]; higher concentrations): almost complete inhibition
- inhibition of PHSRN-induced invasion of SU-ECM ([2]; low concentrations): substantial inhibitory affect
